Test results from ChEMBL document CHEMBL1201862, “PubChem BioAssay data set” (2004).
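Each compound was tested at five concentrations against cells in 96-well plates for 48 hours. Abbreviation: GI50, concentration required for 50% inhibition of growth.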 Activity calls are given as the source filed them. Rule as the data show it: active = GI50 up to about 1.1 µM and inactive = higher.

Legend:
Assay in all cases: growth of human tumour cells (NCI), 48 h
ACHN = test system: ACHN
EKVX = test system: EKVX
HCT-116 = test system: HCT-116
HCT-15 = test system: HCT-15
HOP-92 = test system: HOP-92
IGROV-1 = test system: IGROV-1
LOX IMVI = test system: LOX IMVI
MCF7 = test system: MCF7
MDA-MB-231 = test system: MDA-MB-231
MDA-MB-435 = test system: MDA-MB-435
MOLT-4 = test system: MOLT-4
OVCAR-3 = test system: OVCAR-3
SK-MEL-28 = test system: SK-MEL-28
SK-MEL-2 = test system: SK-MEL-2
SNB-75 = test system: SNB-75
TK-10 = test system: TK-10
U-251 = test system: U-251
HL-60 = test system: HL-60
K562 = test system: K562

Compound | GI50 (ACHN) | GI50 (EKVX) | GI50 (HCT-116) | GI50 (HCT-15) [µM] | GI50 (HOP-92) | GI50 (IGROV-1) | GI50 (LOX IMVI) | GI50 (MCF7) | GI50 (MDA-MB-231) | GI50 (MDA-MB-435) | GI50 (MOLT-4) | GI50 (OVCAR-3) | GI50 (SK-MEL-28) | GI50 (SK-MEL-2) | GI50 (SNB-75) | GI50 (TK-10) | GI50 (U-251) | GI50 (HL-60) | GI50 (K562)
O=C(O)c1ccccc1-c1ccccc1C(=O)Nc1ccc2c(c1)Cc1cc(F)ccc1-2 | 21.2 µM (inactive) | 27.1 µM (inactive) | 16 µM (inactive) | 17.6 | 37.9 µM (inactive) | 34 µM (inactive) | 19.7 µM (inactive) | 27.5 µM (inactive) | 26.3 µM (inactive) | 32.5 µM (inactive) | 26.7 µM (inactive) | 17.7 µM (inactive) | 37.8 µM (inactive) | 18.8 µM (inactive) | 26.6 µM (inactive) | 28.9 µM (inactive) | 21.3 µM (inactive) |  | 
C=CC(=O)N1C/C(=C\c2ccc([N+](=O)[O-])cc2)C(=O)/C(=C/c2ccc([N+](=O)[O-])cc2)C1 | 0.16 µM (active) | 0.243 µM (active) | < 0.017 µM (active) | 0.0253 | 0.811 µM (active) | 0.0728 µM (active) | < 0.0179 µM (active) | < 0.0243 µM (active) | 0.161 µM (active) | 0.254 µM (active) | 0.0791 µM (active) | 0.132 µM (active) | 0.275 µM (active) | 0.43 µM (active) |  | 0.713 µM (active) | 0.0697 µM (active) | > 100 µM (inactive) | 0.0982 µM (active)
CSC1NC(c2ccc(Cl)cc2)=C(C#N)C(=O)N1C1OCC(OC(C)=O)C(OC(C)=O)C1OC(C)=O (centres undefined) | > 100 µM (inactive) | > 100 µM (inactive) |  | 62.1 | > 100 µM (inactive) | > 100 µM (inactive) | > 100 µM (inactive) | > 100 µM (inactive) | > 100 µM (inactive) | > 100 µM (inactive) | 8.24 µM (inactive) | > 100 µM (inactive) | > 100 µM (inactive) |  | > 100 µM (inactive) | > 100 µM (inactive) | > 100 µM (inactive) |  | > 100 µM (inactive)
COc1ccc2nc(-c3ccc(O)cc3)cn2c1 | 23.3 µM (inactive) | 98.6 µM (inactive) | 48.5 µM (inactive) | 48.8 | 95.7 µM (inactive) | 42.4 µM (inactive) | 59 µM (inactive) | 36 µM (inactive) | > 100 µM (inactive) | 18.5 µM (inactive) | 49.1 µM (inactive) | 82 µM (inactive) | 85.5 µM (inactive) | > 100 µM (inactive) | 95.5 µM (inactive) | 71 µM (inactive) | 44.7 µM (inactive) |  | 37.1 µM (inactive)
Cc1ccc(-n2cnc3c(N)nc(N)nc32)cc1 | > 100 µM (inactive) | 81.5 µM (inactive) | > 100 µM (inactive) | > 100 | > 100 µM (inactive) | > 100 µM (inactive) | > 100 µM (inactive) | 66.5 µM (inactive) | > 100 µM (inactive) | > 100 µM (inactive) | 44.7 µM (inactive) | > 100 µM (inactive) | > 100 µM (inactive) | > 100 µM (inactive) | 1.53 µM (inactive) | 65.6 µM (inactive) | > 100 µM (inactive) |  | 
Cc1ccc(S(=O)(=O)NN=C2CCCCCCCCCCC2)cc1 | > 100 µM (inactive) | > 100 µM (inactive) | > 100 µM (inactive) | > 100 | > 100 µM (inactive) | > 100 µM (inactive) | > 100 µM (inactive) | > 100 µM (inactive) | > 100 µM (inactive) | > 100 µM (inactive) | > 100 µM (inactive) | > 100 µM (inactive) | > 100 µM (inactive) | > 100 µM (inactive) |  | > 100 µM (inactive) | > 100 µM (inactive) | > 100 µM (inactive) | > 100 µM (inactive)
O=C1CCCc2ccc3c(c21)CC1(Cc2ccccc2C1)C3 | 12.2 µM (inactive) | 7.78 µM (inactive) | 23 µM (inactive) | 41.7 | 17 µM (inactive) | 50.9 µM (inactive) | 30.6 µM (inactive) | 57.5 µM (inactive) | 27.5 µM (inactive) | 27 µM (inactive) |  | 33.5 µM (inactive) |  | > 100 µM (inactive) | 1.26 µM (inactive) | 69.5 µM (inactive) | 41.8 µM (inactive) |  | 10.8 µM (inactive)
COC(=O)c1c(O)ccc2c1c1c(n2Cc2ccccn2)C(=O)c2ccccc2C1=O | 18.5 µM (inactive) | 36.7 µM (inactive) | 79.8 µM (inactive) | 46 | 26.5 µM (inactive) | 26.4 µM (inactive) |  | 54.1 µM (inactive) | > 100 µM (inactive) | 86.7 µM (inactive) | 94.8 µM (inactive) | 18.1 µM (inactive) | 19.2 µM (inactive) | 42.7 µM (inactive) |  | 99.8 µM (inactive) | 35.7 µM (inactive) | 62.2 µM (inactive) | > 100 µM (inactive)
N=C(c1ccc2ccccc2c1)c1ccccc1Cc1ccccc1 | 45.5 µM (inactive) | 17.3 µM (inactive) | 16.8 µM (inactive) | 28.8 | 27.9 µM (inactive) | 35.9 µM (inactive) | 45.6 µM (inactive) | 33.5 µM (inactive) | > 100 µM (inactive) | 22.7 µM (inactive) | 21.7 µM (inactive) | 22.1 µM (inactive) | 62.4 µM (inactive) | 18.2 µM (inactive) |  | > 100 µM (inactive) | 35.9 µM (inactive) | 27.5 µM (inactive) | 29.9 µM (inactive)
CCOC(=O)/C(C(N)=O)=C(O)/C(O)=C/C(=O)c1ccc(Cl)cc1 | 20 µM (inactive) | 25.9 µM (inactive) | 14.1 µM (inactive) | 17.7 | 21.8 µM (inactive) | 18 µM (inactive) | 16.3 µM (inactive) | 23.8 µM (inactive) | 17.3 µM (inactive) | 23.1 µM (inactive) | 20.1 µM (inactive) | 21.9 µM (inactive) | 24.8 µM (inactive) | 18.5 µM (inactive) | 12.8 µM (inactive) | 8.63 µM (inactive) | 15.6 µM (inactive) |  | 
Nc1ccc(C(=O)Nn2c(-c3ccccc3)nc3ccccc3c2=O)cc1 | > 100 µM (inactive) | > 100 µM (inactive) | > 100 µM (inactive) |  | > 100 µM (inactive) | > 100 µM (inactive) | > 100 µM (inactive) | > 100 µM (inactive) | > 100 µM (inactive) | > 100 µM (inactive) | > 100 µM (inactive) | > 100 µM (inactive) | > 100 µM (inactive) |  | 89.7 µM (inactive) | > 100 µM (inactive) | > 100 µM (inactive) | > 100 µM (inactive) | > 100 µM (inactive)
Cc1n[nH]c(C(F)(F)F)c1/N=N/N(C)C | 4.72 µM (inactive) | 2.25 µM (inactive) | 1.93 µM (inactive) | 7.26 | 8.32 µM (inactive) |  | 1.47 µM (inactive) | 3.5 µM (inactive) | 11.8 µM (inactive) | 14.5 µM (inactive) | 2.48 µM (inactive) | 5.16 µM (inactive) | 17.9 µM (inactive) | 17.2 µM (inactive) |  | 7.91 µM (inactive) | 11 µM (inactive) | 12.6 µM (inactive) | 2.93 µM (inactive)
CC(C)(Br)C(Br)CCC1(C2CO2)CO1 (centres undefined) | > 5 µM (inactive) | > 5 µM (inactive) | > 5 µM (inactive) | > 5 | > 5 µM (inactive) | > 5 µM (inactive) |  | > 5 µM (inactive) | > 5 µM (inactive) | > 5 µM (inactive) | > 5 µM (inactive) | > 5 µM (inactive) | > 5 µM (inactive) |  | > 5 µM (inactive) |  | > 5 µM (inactive) |  | > 5 µM (inactive)
CN(Cc1ccccc1)c1cc(=O)n(C)c(=O)[nH]1 | > 100 µM (inactive) |  | > 100 µM (inactive) | > 100 | > 100 µM (inactive) |  | > 100 µM (inactive) | > 100 µM (inactive) | > 100 µM (inactive) | > 100 µM (inactive) | > 100 µM (inactive) | > 100 µM (inactive) | > 100 µM (inactive) | > 100 µM (inactive) |  | > 100 µM (inactive) | > 100 µM (inactive) | > 100 µM (inactive) | > 100 µM (inactive)
[N-]=[N+]=CC(=O)OCCCCl | > 100 µM (inactive) | > 100 µM (inactive) | > 100 µM (inactive) | > 100 | > 100 µM (inactive) | > 100 µM (inactive) | > 100 µM (inactive) | > 100 µM (inactive) | > 100 µM (inactive) | > 100 µM (inactive) | > 100 µM (inactive) | > 100 µM (inactive) | > 100 µM (inactive) | > 100 µM (inactive) |  | > 100 µM (inactive) | > 100 µM (inactive) | > 100 µM (inactive) | 
CNC(=S)N/N=C1\C(=O)N(CN2CCOCC2)c2ccc([N+](=O)[O-])cc21 | 17.5 µM (inactive) | 15.6 µM (inactive) | 15.4 µM (inactive) | 12.9 | 21.3 µM (inactive) |  | 17.4 µM (inactive) | 20.4 µM (inactive) | 11.9 µM (inactive) | 60.3 µM (inactive) | 43.6 µM (inactive) | 17.5 µM (inactive) | 20.7 µM (inactive) | 6.5 µM (inactive) |  | 13.3 µM (inactive) | 14.7 µM (inactive) | 23.6 µM (inactive) | > 100 µM (inactive)
O=S(=O)(F)Cc1ccccc1 [PHENYLMETHYLSULFONYLFLUORIDE] | > 100 µM (inactive) | > 100 µM (inactive) | > 100 µM (inactive) | > 100 | > 100 µM (inactive) | > 100 µM (inactive) | > 100 µM (inactive) | > 100 µM (inactive) | > 100 µM (inactive) | > 100 µM (inactive) | > 100 µM (inactive) | > 100 µM (inactive) | > 100 µM (inactive) | > 100 µM (inactive) | > 100 µM (inactive) | > 100 µM (inactive) | > 100 µM (inactive) |  | > 100 µM (inactive)
